Measurements reported in patent US20220151230A1, “SPECIFICALLY SUBSTITUTED 3-(2-HALOGEN-6-ALKYL-4-PROPINYLPHENYL)-3-PYRROLIN-2-ONES AND TO THE USE THEREOF AS HERBICIDES” (Bayer Aktiengesellschaft, priority 2019, published 2022).

Tests used:
Details in all cases: one-leaf stage, 80 g/ha, assessed visually after about 3 weeks vs untreated controls, 100% = plants have died
SETVI = assay: Post-emergence herbicidal effect against SETVI; type: in vivo, Setaria viridis
Procedure, shortened: (§1)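 Visual scoring about 3 weeks after treatment gave % herbicidal action relative to untreated plants (0% = control-like, 100% = plants dead). Compounds, as WP or EC with 0.2% wetting agent, were sprayed onto green parts at 600–800 l/ha. Plants had reached the one-leaf stage, 2–3 weeks after sowing in sandy loam under greenhouse conditions.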

ECHCG = assay: Post-emergence herbicidal effect against ECHCG; type: in vivo, Echinochloa crus-galli
Procedure, shortened: as §1

AVEFA = assay: Post-emergence herbicidal effect against AVEFA; type: in vivo, Avena fatua
Procedure, shortened: as §1

DIGSA = assay: Post-emergence herbicidal effect against DIGSA; type: in vivo, Digitaria sanguinalis
Procedure, shortened: as §1

ALOMY = assay: Post-emergence herbicidal effect against ALOMY; type: in vivo, Alopecurus myosuroides
Procedure, shortened: as §1

HORMU = assay: Post-emergence herbicidal effect against HORMU; type: in vivo, Hordeum murinum
Method: Seeds of monocotyledonous and dicotyledonous weed and crop plants are laid out in sandy loam soil in wood-fiber pots, covered with soil and cultivated in a greenhouse under good growth conditions. 2 to 3 weeks after sowing, the test plants are treated at the one-leaf stage. The compounds of the invention, formulated in the form of wettable powders (WP) or as emulsion concentrates (EC), are then sprayed onto the green parts of the plants as aqueous suspension or emulsion at a water application rate equating to 600 to 800 l/ha with addition of 0.2% wetting agent. After the test plants have been left to stand in the greenhouse under optimal growth conditions for about 3 weeks, the action of the preparations is assessed visually in comparison to untreated controls (herbicidal action in percent (%): 100% activity=the plants have died, 0% activity=like control plants).

LOLRI = assay: Post-emergence herbicidal effect against LOLRI; type: in vivo, Lolium rigidum
Procedure, shortened: as §1

Row | SMILES | Post-emergence action [%] against SETVI (SETVI) | Post-emergence action [%] against ECHCG (ECHCG) | Post-emergence action [%] against AVEFA (AVEFA) | Post-emergence action [%] against DIGSA (DIGSA) | Post-emergence action [%] against ALOMY (ALOMY) | Post-emergence action [%] against HORMU (HORMU) | Post-emergence action [%] against LOLRI (LOLRI)
1 | CC#Cc1cc(C)c(C2=C(O)C3(CCCC(OCCC)C3)NC2=O)c(Cl)c1 (stereo not shown) [Example D1, 3-[2-Chloro-6-methyl-4-(prop-1-yn-1-yl)phenyl]-4-hydroxy-7-propoxy-1-azaspiro[4.5]dec-3-en-2-one] | 100% | 100% | 100% | 100% | 100% | 100% | 100%
2 | CC#Cc1cc(C)c(C2=C(OC(=O)OCC)C3(CCC(OCC)CC3)NC2=O)c(Cl)c1 (stereo not shown) [Example P16] | 100% | 100% | 100% | 100% | 100% | 100% | 100%
3 | CC#Cc1cc(C)c(C2=C(O)C3(CCC(OC)CC3)NC2=O)c(Cl)c1 (stereo not shown) [Example E19] | 100% | 100% | 100% | 100% | 100% | 100% | 100%
4 | CC#Cc1cc(C)c(C2=C(O)C3(CCC(OCC)CC3)NC2=O)c(Cl)c1 (stereo not shown) [Example E10] | 100% | 100% | 100% | 100% | 100% | 100% | 100%
5 | C=CCOC1CCC2(CC1)NC(=O)C(c1c(C)cc(C#CC)cc1Cl)=C2O (stereo not shown) [Example E7] | 100% | 100% | 80% | 100% | 100% | 90% | 100%
6 | CC#Cc1cc(C)c(C2=C(O)C3(CCC(OC(C)C)CC3)NC2=O)c(Cl)c1 (stereo not shown) [Example E13] | 100% | 100% | 100% | 100% | 100% | 100% | 100%
7 | CC#Cc1cc(C)c(C2=C(OC(=O)OC)C3(CCC(OC)CC3)NC2=O)c(Cl)c1 (stereo not shown) [Example P10] | 100% | 100% | 100% | 100% | 100% | 100% | 100%
8 | CC#Cc1cc(C)c(C2=C(O)C3(CCC(CC)CC3)NC2=O)c(Cl)c1 (stereo not shown) [Example E1] | 100% | 100% | 100% | 100% | 100% | 100% | 100%
9 | CC#Cc1cc(C)c(C2=C(OC(=O)C(C)C)C3(CCC(OC)CC3)NC2=O)c(Cl)c1 (stereo not shown) [Example P12] | 100% | 100% | 100% | 100% | 100% | 100% | 100%
10 | CC#Cc1cc(C)c(C2=C(OC(=O)OCC)C3(CCC(OC(C)C)CC3)NC2=O)c(Cl)c1 (stereo not shown) [Example P15] | 100% | 100% | 100% | 100% | 100% | 90% | 100%
